Structures can show the parent of a compound that is named as a salt.
Test system: tracheal phenol red excretion in ICR mice
Test: Expectorant test, phenol red excretion method in mice
Type: in vivo, mouse
Description: • Animals: male ICR mice; • Drugs and reagents: Mucosolvan (ambroxol hydrochloride tablets), phenol red, sodium bicarbonate, protein BD-11; • Instruments: centrifuge (Sigma-3K15 type), balance (XS105DU type), Microplate tester (BIO-TEK type).
Experiment grouping: • Solvent control group; • Mucosolvan 30 mg/kg group; • Protein BD-11, 20 mg/kg group, 50 mg/kg group.
The animals were fasted and water was taken freely 16 hours before the experiment. Orally administered Mucosolvan and different doses of protein BD-11 (administration volume 10 ml/kg) in groups, and the solvent control group was given the same volume of distilled water. One hour later, 2.5% phenol red solution was injected intraperitoneally. Mice were sacrificed by neck dislocation after 30 minutes. Take a trachea from below the thyroid cartilage to the branch of the trachea, and put the trachea into 3 ml 5% NaHCO3 solution and let it stand for 3 hours. Take 1 ml of the supernatant and centrifuge at 3000 rpm for 5 minutes. Measure and record the absorbance at 546 nm. According to the standard curve of phenol red, the excretion of phenol red was calculated.
Record the time point of oral administration, the time point of intraperitoneal injection of 2.5% phenol red solution, and the time point of taking the trachea respectively; The absorbance of each group of samples was measured by the microplate reader at 546 nm, Calculate the excretion of phenol red according to the standard curve of phenol red. Calculate the mean and standard error of the data in each group, and use TTEST to compare the solvent control group with other groups, and P<0.05 is considered as a significant difference.
Give Mucosolvan (30 mg/kg) and different doses of protein BD-11 (20 mg/kg, 50 mg/kg). One hour later, 2.5% phenol red solution was intraperitoneally injected, and 30 minutes later, the mice were sacrificed by neck dislocation. Take the trachea from below the thyroid cartilage to the branch of the trachea, put the trachea into 3 ml of 5% NaHCO3 solution and let it stand for 3 hours, take 1 ml of supernatant, centrifuge at 3000 rpm for 5 minutes, measure and record the absorbance at 546 nm. According to the standard curve of phenol red, the excretion of phenol red was calculated.

Nc1c(Br)cc(Br)cc1CN[C@H]1CC[C@H](O)CC1 [Mucosolvan, ambroxol hydrochloride, reference compound]
Phenol red excretion (Mucosolvan 30 mg/kg oral, X±SEM, n=10): 1.061 ± 0.117 µg/mL
Amount of phenol red excretion vs solvent control group (Mucosolvan 30 mg/kg, P<0.05): significantly increased

Source: patent publication US20230183305A1, “KERATIN BD-11, PREPARATION METHOD THEREFOR AND PHARMACEUTICAL COMPOSITION AND USE THEREOF” (INSTITUTE OF MATERIA MEDICA, CHINESE ACADEMY OF MEDICAL …, priority 2019, published 2023)
